Assay results published in patent US6262021A, “Use of substances having oxytocin activity for preparation of medicaments for wound healing” (EntreTech Medical AB, priority 1997, dated 2001).

Legend:
[1] = system: musculocutaneous flaps; assay: Survival of musculocutaneous flaps in rats after administration of oxytocin (Test 1); format: in vivo, rats (Sprague-Dawley); conditions: 1 mg/kg s.c. 24 h and 1 h before and 24 h after operation; estimated six days after operation; oxytocin p<0.05, antagonist no significance p=0.13
Source text: An established model of wound healing is to investigate the survival of musculocutaneous flaps in rats. In plastic surgery, reconstructive problems are often solved by surgical flaps. The main disadvantage of surgical flaps has been their tendency to develop ischemia and eventually necrosis of the distal part. This complication can in the end ruin what postoperatively seemed to be an excellent result. Much research has been devoted to explain the mechanisms of surgical skin flap survival and how to prevent and reverse established ischemia.
The aim of this study was to investigate the effects of oxytocin on the survival of musculocutaneous flaps in rats.
71 female albino rats (Sprague-Dawley, weight 180-220 g) were anaesthetized with chloralhydrate (0.4 g/kg), shaved on the back and a dorsal cranially based standard flap (2×7 cm) was elevated and then sutured back in position. The flap was raised from the deep fascia of muscle and included the superficial fascia, panniculus carnosus, subcutaneous tissue and skin. 24 h and 1 h before operation, respectively, as well as 24 h after operation the rats were treated with 1 mg/kg oxytocin s.c. (n=20), an oxytocin antagonist, that is 1-deamino-2-D-Tyr-(OEt)-4-Thr-8-Orn-oxytocin in an amount of 1 mg/kg (n=15), with 1 mg/kg of said oxytocin antagonist and then after 30 minutes with 1 mg/kg oxytocin (n=16), or with saline (n=20). […]

[2] = system: NGF; conditions: intravenous injection, female rats; cited from earlier work
[3] = system: FGF-1; assay: Concentration of FGF in skin biopsies from the injured area of diabetic mice; format: in vivo, C57BL/Ks-db/db diabetic mice; conditions: 10 μg/cm^2 oxytocin; skin biopsies 7 days after injury; ten mice; p<0.001
Experimental: The concentration of FGF was compared in skin biopsies taken from the injured area ("ulcer") of ten mice treated with 10 μg/cm^2 oxytocin and ten mice treated with PBS 7 days after injury. […] This increase in concentration was highly significant (p<0.001) and strongly support the hypothesis that oxytocin increases wound healing through an increased expression and synthesis of FGF-1.

[4] = system: central α2 -receptors; assay: Activity of central α2-receptors after oxytocin; format: in vivo; conditions: rats; by way of a central action
Source text: Experiments have shown that oxytocin by way of a central action increases the activity of the central α2 -receptors in rats. These receptors have an inhibitory action and counteracts the activating aspects of noradrenalin in the brain which are mainly mediated via α1 -receptors, which activate cyclic AMP. When α2 -receptor stimulation dominates over α1 -receptor stimulation, activity is exchanged by relaxation and energy is shunted towards growing and healing, i.e. is not used for stress or muscular contraction and activity. As a consequence parasympathetic nerve tone dominates over sympathetic nervous tone and the musculature is relaxed. It can be presumed that oxytocin exerts a similar effect also in humans. During breast feeding--a situation characterized by repetitive oxytocin secretion--all the effects observed in experimental animals following repeated oxytocin administration are seen. It is not known how the effect by oxytocin on α2 -receptors is mediated, but probably not by a classical oxytocin receptor mediated effect.

[5] = system: full-thickness dermal excisional wounds; assay: Wound healing in diabetic mice after administration of oxytocin (Test 2); format: in vivo, C57BL/Ks-db/db diabetic mice
Source text: For studying the effects of cutaneous wound-healing agents on chronic non-healing dermal ulcers the mutant C57BL/Ks-db/db diabetic mouse has emerged as a potentially relevant healing-impaired model. These homozygous genetically diabetic mice develop obesity and hyper-glycemia that is resistant to insulin, analogous to human type II diabetes. They also show signs of diabetes such as excessive drinking and urination and greatly elevated urinary glucose levels. […] Previous studies have used this model to evaluate formulations of aFGF.
Female C57BL/Ks-db/db diabetic mice, 11 weeks old, were obtained from Jackson Laboratories (Bar Harbor, Me.). The mice were housed in sterile microisolator boxes (four per box) with sterile water and bedding and were kept in a semi-barrier quarantine facility. Supplemental heat was provided with electric heating pads under half of each box after wounding to prevent hypothermia and reduce mortality.
Mice were anesthetized with intraperitoneal injections of 110 mg ketamine and 9 mg xylazine per kg of body weight. The mid-back and thoracic skin was shaved and disinfected with a 2% Chlorhexidine surgical scrub, followed by 70% ethanol. A template 1.6 cm in diameter was used to mark a 2.0 cm^2 circle on the mid-dorsal area, and a single full-thickness wound was created by blunt excision with sterile curved iris scissors. […] All surgical and subsequent healing analysis procedures were performed in a laminar flow hood using full aseptic techniques. Doses were administrated on 5 consecutive days before, and on day 0, 3 and 7 after injury. Oxytocin was administrated at different doses, 0.001, 0.01, 0.1, 1.0, 10.0 and 100.0 μg/cm^2 , respectively, to groups of 16 mice per dose. The wounds were covered with a semitransparent Bioclusive dressing (Johnson & Johnson Products, New Brunswick, N.J.) for protection, maintenance of a moist environment and prevention of crust formation. Wound fluid samples were taken at day 10 after injury and cultured for aerobic and anaerobic microorganisms.
Wound appearances were recorded photographically and their perimeters were traced onto sterile glass slides applied directly to the exposed wound surfaces after pre-wetting with a drop of sterile physiologic saline. Measurements were made immediately after wounding and twice weekly thereafter until the wounds were completely closed. Wound areas and perimeters were determined from the glass-slide tracings using computerized image analysis. Statistical significances of differences between groups were evaluated using an unpaired two-tailed Student t-test.
Healing expressed as a decrease in percent initial area was converted to linear ingrowth from the wound edges by dividing the differences in wound areas by the average wound perimeters at sequential time intervals. Total ingrowth at a specific time is the sum of the incremental ingrowth distances up until that time. This transformation linearized closure as a function of time, thereby allowing expression of healing as kinetic rates that were constant over time.
Wounds, examined twice weekly to monitor time to total closure, were considered fully healed when moist granulation tissue was no longer apparent, indicating a functional epidermal water-permeability barrier. Closure was also confirmed histologically. Time-point comparisons of the fraction of healed versus unhealed wounds were analyzed by the X^2 statistic with Yates correction, and group comparisons of absolute days to total closure for individual animals were analyzed by an unpaired two-tailed Student t-test.

For `CC[C@H](C)[C@@H]1NC(=O)[C@H](Cc2ccc(O)cc2)NC(=O)[C@@H](N)CSSC[C@@H](C(=O)N2CCC[C@H]2C(=O)N[C@@H](CC(C)C)C(=O)NCC(N)=O)NC(=O)[C@H](CC(N)=O)NC(=O)[C@H](CCC(N)=O)NC1=O` [oxytocin], the “survival of the flaps compared to the saline-treated controls” value [1] is listed as “significantly higher”, the “hypothalamic levels of NGF” value [2] is listed as “increase” and the “FGF-1 synthesized, increase compared to PBS vehicle treated mice” value [3] is listed as 162%. The “activity of the central α2 -receptors” value [4] was “increases”, the “healing rates over paired vehicle controls” value ([5]; 0.001 μg/cm^2, 0.01 μg/cm^2 and 0.1 μg/cm^2 doses) was “ineffective” and the “linear rate of healing from the wound edges” value ([5]; 10 μg/cm^2, all time intervals, p≤0.01) was “increased”. The “enhancement of the healing rate of treated wounds” value ([5]; 10 μg/cm^2, as early as day 7 after injury and throughout the test period, p≤0.01) was “Statistically significant enhancements”, the “total closure (fraction of wounds closed)” value ([5]; 10 μg/cm^2, by day 14, p≤0.05) was “increases” and the “decrease in wound size in treated mice compared with PBS/heparin vehicle” value ([5]; 10 μg/cm^2, day 14) was 10 fold. The “maximum difference in percent of initial area between oxytocin and vehicle-treated wounds” value ([5]; 10 μg/cm^2, from 14 d after injury) was 50%, the “mean linear healing rate” value ([5]; 10 μg/cm^2, vehicle-treated group 0.18 mm/d, p≤0.01) was 0.45 mm/d and the “decrease of time to total closure” value ([5]; 0.001-μg/cm^2 and 0.01 μg/cm^2 doses) was “ineffective”. The “time required for wounds to close completely” value ([5]; 1 to 100 μg/cm^2 per dose) was “significantly reduced”, the “wounds closed sooner than respective vehicle controls” value ([5]; dose range 1.0 to 10.0 μg/cm^2) was “approximately 10 d” and the “wound closure compared with vehicle control” value ([5]; three doses of 10 μg per cm^2 initial wound area during first week after wounding, topical) was “substantially faster”. The “median time to complete closure” value ([5]; three doses of 10 μg/cm^2 during first week after injury, vehicle 52 d, p≤0.0001) was 23 days and the “healing rates over paired vehicle controls” value ([5]; three topical applications, 1 to 100 μg/cm^2 per dose, first week after injury) was “significant dose-related increases”.
